Results taken from ChEMBL document CHEMBL1122477, “Neuroleptic activity and dopamine-uptake inhibition in 1-piperazino-3-phenylindans” (J Med Chem, 1983).

What was measured:
[1] = species on record: Mus musculus
Description: (§1) Compound (administered intraperitoneally) was assessed for neuroleptic activity to antagonize methyl phenidate induced stereotypes in mice

[2] = species on record: Mus musculus; assay: animal or person; conditions: ip
Description: as §1

[3] = system: Rattus norvegicus; assay: Tested orally in rats for antagonism of stereotypies induced by amphetamine; format: functional
[4] = species on record: Rattus norvegicus; assay: animal or person; conditions: po
Description: (§2) Ability to induce catalepsy in rats perorally, an effect normally related to clinical extrapyramidal side effects

[5] = target: Norepinephrine transporter (Rattus norvegicus, UniProt Q9WTR4)
Description: (§3) Effect on synaptosomal uptake inhibition of Noradrenaline (NA)

[6] = species on record: Mus musculus; assay: Assessed for thymoleptic activity by its ability to antagonize tetrabenazine ptosis in mice; format: functional
[7] = target: T1, Sodium-dependent serotonin transporter (Rattus norvegicus, UniProt P31652); assay: Effect on synaptosomal uptake inhibition of 5-hydroxytryptamine (5-HT); format: functional
[8] = target: Dopamine receptor
Description: Effect on synaptosomal uptake inhibition of Dopamine receptor

[9] = species on record: Rattus norvegicus
Description: as §2

[10] = target: Sodium-dependent dopamine transporter (Rattus norvegicus, UniProt P23977)
Description: Effect on synaptosomal uptake inhibition of Dopamine transporter

[11] = target: T1, Sodium-dependent serotonin transporter
[12] = target: Adrenergic receptor beta (Rattus norvegicus, UniProt P18090+P10608+P26255)
Description: as §3

[13] = Rattus norvegicus, po, read-out: ED50

T1 sequence (P31652 whole entry): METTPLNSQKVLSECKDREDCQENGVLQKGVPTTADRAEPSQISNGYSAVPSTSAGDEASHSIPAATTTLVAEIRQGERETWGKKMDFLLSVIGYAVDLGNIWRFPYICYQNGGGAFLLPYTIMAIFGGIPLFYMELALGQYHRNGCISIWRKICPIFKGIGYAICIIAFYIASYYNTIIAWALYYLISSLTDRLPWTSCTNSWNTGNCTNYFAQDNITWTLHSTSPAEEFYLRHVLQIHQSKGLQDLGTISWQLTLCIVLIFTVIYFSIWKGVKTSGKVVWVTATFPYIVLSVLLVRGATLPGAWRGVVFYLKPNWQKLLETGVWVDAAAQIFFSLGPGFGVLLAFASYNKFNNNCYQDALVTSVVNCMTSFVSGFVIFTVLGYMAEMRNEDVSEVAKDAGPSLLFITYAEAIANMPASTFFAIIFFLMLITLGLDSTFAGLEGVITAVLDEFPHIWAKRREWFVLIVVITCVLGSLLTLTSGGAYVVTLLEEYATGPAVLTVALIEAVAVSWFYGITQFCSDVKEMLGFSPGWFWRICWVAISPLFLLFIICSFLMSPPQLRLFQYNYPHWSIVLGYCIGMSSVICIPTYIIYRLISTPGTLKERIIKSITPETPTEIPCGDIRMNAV
Norepinephrine transporter, sequence (Q9WTR4 whole entry): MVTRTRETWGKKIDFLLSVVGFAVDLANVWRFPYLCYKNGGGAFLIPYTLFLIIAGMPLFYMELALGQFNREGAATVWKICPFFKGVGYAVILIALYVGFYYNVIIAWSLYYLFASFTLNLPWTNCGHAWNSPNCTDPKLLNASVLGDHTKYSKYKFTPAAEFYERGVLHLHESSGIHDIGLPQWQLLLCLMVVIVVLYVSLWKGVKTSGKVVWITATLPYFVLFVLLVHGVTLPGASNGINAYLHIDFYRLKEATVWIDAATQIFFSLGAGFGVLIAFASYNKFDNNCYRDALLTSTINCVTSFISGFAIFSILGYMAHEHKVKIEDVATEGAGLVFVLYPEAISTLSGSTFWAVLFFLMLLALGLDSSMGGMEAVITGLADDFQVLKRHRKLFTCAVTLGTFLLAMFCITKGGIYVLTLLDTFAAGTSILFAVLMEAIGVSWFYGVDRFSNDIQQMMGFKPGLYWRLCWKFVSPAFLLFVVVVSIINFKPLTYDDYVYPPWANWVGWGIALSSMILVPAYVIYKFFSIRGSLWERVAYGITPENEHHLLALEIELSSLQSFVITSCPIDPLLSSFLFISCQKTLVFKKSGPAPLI
Sodium-dependent dopamine transporter, sequence (P23977 whole entry): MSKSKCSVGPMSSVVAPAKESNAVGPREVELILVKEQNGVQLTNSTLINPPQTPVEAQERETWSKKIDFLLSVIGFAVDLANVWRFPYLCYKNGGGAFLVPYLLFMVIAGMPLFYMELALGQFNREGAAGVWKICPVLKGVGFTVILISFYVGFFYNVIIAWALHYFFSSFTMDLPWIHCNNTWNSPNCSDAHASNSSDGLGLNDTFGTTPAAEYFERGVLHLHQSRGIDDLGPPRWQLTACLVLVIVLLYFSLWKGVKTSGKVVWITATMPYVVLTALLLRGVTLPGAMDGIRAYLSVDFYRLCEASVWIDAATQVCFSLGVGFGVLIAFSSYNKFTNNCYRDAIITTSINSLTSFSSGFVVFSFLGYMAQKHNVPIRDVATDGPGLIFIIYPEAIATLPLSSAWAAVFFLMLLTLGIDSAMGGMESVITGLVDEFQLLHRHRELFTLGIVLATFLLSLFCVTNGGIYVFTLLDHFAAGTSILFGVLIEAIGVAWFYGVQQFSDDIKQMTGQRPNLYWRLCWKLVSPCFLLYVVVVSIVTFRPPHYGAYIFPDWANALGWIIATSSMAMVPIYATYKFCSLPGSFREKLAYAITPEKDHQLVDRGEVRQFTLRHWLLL

OCCCN1CCN(C2CC(c3ccc(F)cc3)c3ccc(F)cc32)CC1 (cis isomer)
ED50 [1]: >90 µM/kg

CN1CCN(C2CCC(c3ccc(F)cc3)c3ccc(F)cc32)CC1 (stereo in doubt; 3b)
ED50 [2]: > 96 µmol/kg

OCCN1CCN([C@@H]2C[C@@H](c3ccccc3)c3ccc(C(F)(F)F)cc32)CC1 (relative stereo)
ED50 [2]: 4.7 µmol/kg
ED50 [3, 13]: 10.4 µmol/kg
ED50 [4]: 5.7 µmol/kg

OCCN1CCN([C@@H]2C[C@@H](c3ccc(Cl)cc3)c3ccc(C(F)(F)F)cc32)CC1 (relative stereo)
ED50 [2]: 40 µmol/kg
ED50 [3, 13]: 22 µmol/kg
ED50 [4]: 29 µmol/kg

CN1CCN(C2CCC(c3ccc(F)cc3)c3ccc(F)cc32)CC1 (trans isomer)
ED50 [1]: >117 µM/kg

CN1CCN(C2CC(c3ccc(Cl)c(Cl)c3)c3ccccc32)CC1.Cl.Cl (single isomer, unassigned; 99)
IC50 [5]: 2.5 nM
ED50 [6]: 69 µM/kg
IC50 [7]: 530 nM
IC50 [8]: 2.3 nM

NC(=O)CN1CCN(C2CC(c3ccc(F)cc3)c3ccc(F)cc32)CC1 (trans isomer)
ED50 [2]: > 88 µmol/kg

CN1CCN(C2CC(c3ccc(F)cc3)c3ccc(F)cc32)CC1.Cl.Cl (single isomer, unassigned; (+))
ED50 [9]: 41 µM/kg
IC50 [10]: 1800 nM
IC50 [11]: 4000 nM
ED50 [1]: 2.5 µM/kg
ED50 [3]: 15 µM/kg

CCN1CCN(C2CC(c3ccc(F)cc3)c3ccc(F)cc32)CC1.Cl.Cl (trans isomer)
ED50 [1]: 7 µM/kg
ED50 [3, 13]: 14 µmol/kg
ED50 [4]: 53 µmol/kg

Fc1ccc(C2CC(N3CCN(CCc4ccccc4)CC3)c3cc(F)ccc32)cc1 (trans isomer)
ED50 [1]: 37 µM/kg

CN1Cc2c(N)cccc2C(c2ccccc2)C1 (configuration not stated) [NOMIFENSINE]
IC50 [5]: 6.6 nM
IC50 [8]: 48 nM

Cl.Cl.OCC(CO)N1CCN(C2CC(c3ccc(F)cc3)c3ccc(F)cc32)CC1 (trans isomer)
ED50 [1]: 4.2 µM/kg
ED50 [3, 13]: 25 µmol/kg
ED50 [4]: 124 µmol/kg

CCN1CCN(C2CC(c3ccc(F)cc3)c3ccc(F)cc32)CC1.Cl.Cl (cis isomer)
ED50 [1]: >96 µM/kg

Fc1ccc(C2CC(N3CCN(C/C=C/c4ccccc4)CC3)c3cc(F)ccc32)cc1 (stereo in doubt; 63)
IC50 [10]: 340 nM
IC50 [11]: 160 nM
ED50 [2]: 57 µmol/kg

Cl.Cl.OCC(O)CN1CCN(C2CC(c3ccc(F)cc3)c3ccc(F)cc32)CC1 (trans isomer)
ED50 [9]: >280 µM/kg
ED50 [1]: 2.9 µM/kg
ED50 [3, 13]: 33 µmol/kg

OCCN1CCN(C2CC(c3ccc(F)cc3)c3cc(F)ccc32)CC1 (trans isomer)
ED50 [2]: 14 µmol/kg
ED50 [3, 13]: > 93 µmol/kg
ED50 [4]: > 93 µmol/kg

N#CCCN1CCN(C2CC(c3ccc(F)cc3)c3ccc(F)cc32)CC1 (trans isomer)
ED50 [2]: 73 µmol/kg
ED50 [3, 13]: > 91 µmol/kg

Cl.Cl.OCCN1CCN(C2CC(c3ccc(Cl)cc3Cl)c3ccccc32)CC1 (cis isomer)
ED50 [6]: >94 µM/kg
IC50 [8]: 2000 nM

CN1CCN(C2CC(c3ccc(Cl)c(Cl)c3)c3ccccc32)CC1.Cl.Cl (single isomer, unassigned; 95)
IC50 [5]: 120 nM
ED50 [6]: >91 µM/kg
IC50 [7]: 2500 nM
IC50 [8]: 340 nM

Cl.Cl.Clc1ccc(C2CC(N3CCN(C/C=C/c4ccccc4)CC3)c3ccccc32)cc1Cl (stereo in doubt; 104)
ED50 ([6]; Mus musculus, read-out: ED50): > 75 µmol/kg
IC50 [8]: 100 nM

Cl.Cl.Clc1ccc(C2CC(N3CCN(C/C=C/c4ccccc4)CC3)c3ccccc32)cc1Cl (cis isomer)
ED50 [6]: >73 µM/kg
IC50 [8]: 35 nM

Cc1ccc([C@@H]2C[C@@H](N3CCN(CCO)CC3)c3cc(C(F)(F)F)ccc32)cc1 (relative stereo)
ED50 [2]: 42 µmol/kg
ED50 [3, 13]: 64 µmol/kg
ED50 [4]: > 81 µmol/kg

OCCN1CCN(C2CC(c3ccc(F)cc3)c3ccccc32)CC1 (configuration not stated)
ED50 [2]: > 118 µmol/kg

Cl.Cl.OCCN1CCN(C2CC(c3ccc(Cl)c(Cl)c3)c3ccccc32)CC1 (trans isomer)
IC50 [5]: 8.2 nM
ED50 [6]: 45 µM/kg
IC50 [7]: 210 nM
IC50 [8]: 2.8 nM

CN1CCN(C2CC(c3ccc(F)cc3)c3ccc(F)cc32)CC1.Cl.Cl (stereo in doubt; 56)
IC50 [10]: 110 nM
IC50 [11]: 6100 nM
ED50 [1]: >95 µM/kg
ED50 [3]: >95 µM/kg

Cl.Cl.Fc1ccc(C2CC(N3CCN(C/C=C/c4ccccc4)CC3)c3cc(F)ccc32)cc1 (stereo in doubt; 64)
IC50 [10]: 210 nM
IC50 [11]: 400 nM
ED50 [1]: >79 µM/kg

CN1CCN(C2CC(c3ccc(Cl)c(Cl)c3)c3ccccc32)CC1.Cl.Cl (single isomer, unassigned; 96)
IC50 [5]: 7.8 nM
ED50 [6]: 26 µM/kg
IC50 [7]: 230 nM
IC50 [8]: 10 nM

OCCCN1CCN(C2CC(c3ccc(Cl)c(Cl)c3)c3ccccc32)CC1 (configuration not stated)
IC50 [5]: 6.8 nM
ED50 [6]: 12 µM/kg
IC50 [7]: 120 nM
IC50 [8]: 15 nM

Cl.Cl.OCCN1CCN(C2CC(c3ccc(F)cc3)c3ccc(C(F)(F)F)cc32)CC1 (cis isomer)
ED50 [9]: >166 µM/kg
IC50 [10]: 93 nM
ED50 [1]: >80 µM/kg

Cl.Cl.OCCCN1CCN(C2CC(c3ccc(Cl)c(Cl)c3)c3ccccc32)CC1 (configuration not stated)
IC50 [5]: 0.3 nM
ED50 [6]: 71 µM/kg
IC50 [7]: 440 nM
IC50 [8]: 5.6 nM

OCCN1CCN([C@@H]2C[C@@H](c3ccc(Cl)cc3)c3ccc(Cl)cc32)CC1 (relative stereo)
ED50 [2]: > 86 µmol/kg
ED50 [4]: > 86 µmol/kg

Cl.Cl.OCCN1CCN(C2CC(c3ccc(Cl)c(Cl)c3)c3ccccc32)CC1 (cis isomer)
IC50 [5]: 10 nM
ED50 ([6]; Mus musculus, read-out: ED50): 72 µmol/kg
IC50 [7]: 600 nM
IC50 [8]: 12 nM

Cl.Cl.OCCN1CCN(C2CC(c3ccc(F)cc3)c3ccc(F)cc32)CC1 (configuration not stated)
IC50 [12]: 150 nM
IC50 [11]: 2300 nM
ED50 [1]: 7 µM/kg
ED50 [3]: 14 µM/kg
ED50 [4]: 184 µmol/kg

OCC(O)CN1CCN(C2CC(c3ccc(F)cc3)c3ccc(F)cc32)CC1 (configuration not stated)
ED50 [9]: >102 µM/kg
ED50 [1]: >51 µM/kg

Fc1ccc(C2CC(N3CCN(CCc4ccccc4)CC3)c3cc(F)ccc32)cc1 (cis isomer)
ED50 [1]: >95 µM/kg

CC(O)CN1CCN(C2CC(c3ccc(F)cc3)c3ccc(F)cc32)CC1.Cl.Cl (stereo in doubt; 71)
ED50 [1]: 2.8 µM/kg
ED50 [3, 13]: 12 µmol/kg
ED50 [4]: 37 µmol/kg

CS(=O)(=O)c1ccc2c(c1)C(N1CCN(CCO)CC1)CC2c1ccc(F)cc1 (trans isomer)
ED50 [2]: 20 µmol/kg

CC(C)c1ccc2c(c1)C(N1CCN(CCO)CC1)CC2c1ccc(F)cc1 (trans isomer)
ED50 [2]: 9.6 µmol/kg
ED50 [3, 13]: 26 µmol/kg
ED50 [4]: 17 µmol/kg

Cl.Cl.Fc1ccc(C2CC(N3CCN(CC4CC4)CC3)c3cc(F)ccc32)cc1 (stereo in doubt; 60)
ED50 [1]: >91 µM/kg

Cl.Cl.Fc1ccc(C2CC(N3CCN(CC4CC4)CC3)c3cc(F)ccc32)cc1 (stereo in doubt; 59)
ED50 [1]: 11 µM/kg
ED50 [3, 13]: 36 µmol/kg
ED50 [4]: 53 µmol/kg

Cc1ccc2c(c1)C(N1CCN(CCO)CC1)CC2c1ccc(F)cc1 (trans isomer)
ED50 [2]: 7.6 µmol/kg
ED50 [3, 13]: 21 µmol/kg
ED50 [4]: 17 µmol/kg

CN(C)C[C@H]1C2CCC(CC2)[C@H]1c1ccc(Cl)c(Cl)c1 (relative stereo)
IC50 [7]: 13 nM

OCCN1CCN(C2CC(c3ccc(F)cc3)c3ccc(F)cc32)CC1 (configuration not stated)
IC50 [12]: 140 nM
IC50 [11]: 9700 nM
ED50 [1]: >112 µM/kg
ED50 [3]: >112 µM/kg

Cl.Cl.OCC(CO)N1CCN(C2CC(c3ccc(F)cc3)c3ccc(F)cc32)CC1 (stereo in doubt; 77)
ED50 [1]: >43 µM/kg

CN1CCN(C2CC(c3ccc(Cl)c(Cl)c3)c3ccccc32)CC1.Cl.Cl (trans isomer)
IC50 [5]: 32 nM
ED50 [6]: 48 µM/kg
IC50 [7]: 200 nM
IC50 [8]: 11 nM

COc1ccc2c(c1)C(N1CCN(CCO)CC1)CC2c1ccc(F)cc1 (trans isomer)
ED50 [2]: 19 µmol/kg
ED50 [3, 13]: 38 µmol/kg
ED50 [4]: 102 µmol/kg

CC(C)(O)CN1CCN(C2CC(c3ccc(F)cc3)c3ccc(F)cc32)CC1 (trans isomer)
ED50 [2]: > 87 µmol/kg
ED50 [3, 13]: 30 µmol/kg

CC(O)CN1CCN(C2CC(c3ccc(F)cc3)c3ccc(F)cc32)CC1.Cl.Cl (stereo in doubt; 72)
ED50 [1]: 45 µM/kg

CN1CCN(C2CC(c3ccc(F)cc3)c3ccc(F)cc32)CC1.Cl.Cl (stereo in doubt; 53)
ED50 [9]: 202 µM/kg
IC50 [10]: 180 nM
IC50 [11]: 2000 nM
ED50 [1]: 11 µM/kg
ED50 [3]: 37 µM/kg

CN1CCN(C2CC(c3ccc(Cl)c(Cl)c3)c3ccccc32)CC1.Cl.Cl (stereo in doubt; 97)
IC50 [5]: 7.7 nM
ED50 [6]: 100 µM/kg
IC50 [7]: 630 nM
IC50 [8]: 4.4 nM

Cl.Cl.OCCN1CCN(C2CC(c3ccc(Cl)cc3Cl)c3ccccc32)CC1 (trans isomer)
ED50 ([6]; Mus musculus, read-out: ED50): > 86 µmol/kg
IC50 [8]: 4500 nM

CSc1ccc2c(c1)C(N1CCN(CCO)CC1)CC2c1ccc(F)cc1 (configuration not stated)
ED50 [2]: 2.8 µmol/kg
ED50 [3, 13]: 20 µmol/kg
ED50 [4]: 14 µmol/kg

OCCN1CCN(C2CC(c3ccc(F)cc3)c3ccc(Cl)cc32)CC1 (trans isomer)
ED50 [2]: 2.8 µmol/kg
ED50 [3, 13]: 3.5 µmol/kg
ED50 [4]: 3.3 µmol/kg

CN1CCN(C2CC(c3ccc(F)cc3)c3ccc(F)cc32)CC1.Cl.Cl (stereo in doubt; 55)
ED50 [9]: >790 µM/kg
IC50 [10]: 88 nM
IC50 [11]: 630 nM
ED50 [1]: 42 µM/kg
ED50 [3]: >200 µM/kg

Cl.Cl.OCCCN1CCN(C2CC(c3ccc(F)cc3)c3ccc(F)cc32)CC1 (configuration not stated)
ED50 [1]: 3.7 µM/kg
ED50 [3, 13]: 5.2 µmol/kg
ED50 [4]: 8.3 µmol/kg

CN1CCN(C2Cc3ccccc3Sc3ccc(Cl)cc32)CC1 (configuration not stated) [CLOROTEPINE]
ED50 [2]: 6.7 µmol/kg
ED50 [3, 13]: 0.56 µmol/kg
ED50 [4]: 4.5 µmol/kg
